We go through eleven molecules from article PMC6161179, “Looking for Novel Capsid Protein Multimerization Inhibitors of Feline Immunodeficiency Virus” (Pharmaceuticals, 2018).

Molecules are shown by their SMILES. Where two headings read alike, the source gives them in different places. Some results are limits rather than exact numbers.

The subject of one data set is Vero cell lines. Nature of the data set: MTT cytotoxicity assay in Vero cells. Type of data set: cell-based. The note with it: compound at 100µM, 48 h. The method, then: (§1) Vero cell lines (ATCC, Rockville, MD, USA) were cultivated in Dulbecco’s modified Eagles medium (DMEM) with 10% FCS in a humid atmosphere of 5% CO2 at 37 °C. Vero cells were seeded in 96-well plates at an initial density of 5 × 10^3 cells per well. J774.1 murine macrophage cells (ATCC, Manassas, VA, USA) were grown in DMEM culture milieu containing 4 mM L-glutamine and supplemented with 10% FCS. The cells were seeded in a 96-well plate (5 × 10^4 cells in 200 µL culture medium) and incubated at 37 °C in a 5% CO2 atmosphere for 48 h, to allow cell adhesion prior to drug testing. Both cell lines were exposed for 48 h (at 37 °C and 5% CO2) to the compounds (100 µM) or the solvent (0.4% DMSO) for the control, and additional controls (cells in medium) were used in each test. The cytotoxicity of the compounds was evaluated by MTT reduction assays. To proceed with the MTT assay, 20 μL of 3-(4,5-dimethylthiazol-2-yl)-2,5-diphenyl-2H-tetrazolium bromide (MTT) 5 mg/mL solution dissolved in 1× PBS was added to the wells and incubated for 4 h at 37 °C in a 5% CO2 controlled atmosphere. Next, the medium was aspirated and 100 μL of DMSO was added to each well and incubated at room temperature in the dark for 15 min with moderate orbital shaking. Optical density (OD) was read in a plate spectrophotometer (Thermo Scientific Varioskan® Flash Multimode, Waltham, MA, USA) at 570 and 690 nm wavelengths. Each experiment was performed in triplicate. For the statistical analyses, the GraphPad Prism 6 was used. Dunnett’s multiple comparison tests and Student’s T-test were used when we compared the averages of each condition with the control.

Data set [1] addresses T1, FIV CA (p24) (Feline immunodeficiency virus, UniProt P16087).
T1 construct: The FIV CA protein was expressed and purified mostly as described; made in house; host or cells: Escherichia coli BL21(DE3) pLysS
Kind of data set: In vitro CA assembly assay (spectrophotometry / light scattering). Type of data set: biochemical. As to conditions: re-validated by light scattering and spectrophotometry; compounds at 25 or 50 µM. The method, then:
Indeed, our initial assay used light scattering and could only monitor the assembly of one sample per experiment on 40 min kinetics. […] The use of the spectrometric technique to follow capsid assembly has been described for HIV [24] and is based on the detection of capsid assembly via the measurement of the increase of medium turbidity. The use of this technique to monitor FIV p24 assembly allowed us to use 384-well plates, reducing the volume of protein to 15 µL per sample and allowing a testing of 10 compounds, in duplicate, in 40 min. Moreover, in this format, the protein concentration (5 mg/mL) was enough to start the assembly without needing the high concentration of salt used in the HIV in vitro assembly assay. High salt concentration could cause a problem by interfering with the solvation and solubility of some molecules and the loss of their interaction with the target. The only limitation of this method using low volumes was the risk of introducing air bubbles in the reaction, which interfere negatively in the absorbance measurement. However, this issue was solved by a careful manipulation in the filling process of the plates.
With this spectrometric assembly assay, we were able to discriminate two different behaviors for compounds interfering with the assembly of FIV CA: the enhancement of the assembly or its inhibition. The enhancement of assembly is associated with an increase of the diameter of the assembled objects and could result in a disordered or altered capsid with a loss of function. Inhibition is the classical effect which would impair the formation of the capsid (Figure 3).
High nitrogen content heretocycles were not a good source of bioactive molecules. Some compounds with structural similarities with Bevirimat were also active, like some steroid compounds clustered in diverse families. […] We could not find active molecules in four families (i.e., selenium containing compounds, flavones, triazines, and indazoles).
The CA assembly assay was performed in a final volume of 50 μL in 384-well plates, with a final concentration of 5 mg/mL of purified recombinant FIV […] in 50 mM NaH2PO4 and 1 M NaCl, pH 7.4. Absorbance is measured at 340 nm every 30 s in a multiplate reader Varioskan^TM Flash Multimode Reader (Thermo Scientific^TM, Waltham, MA, USA) at 38 °C for 30 min. The compounds were tested at a fixed initial dose of 25 or 50 μM (at 0.5% DMSO v/v) by adding 1 µL of the concentrated ligand were added to the well before starting the measurement. The controls were CA at 5 mg/mL in only 0.5% DMSO v/v and CA without DMSO. The criteria to select active compounds were the observation of at least 50% of assembly inhibition at these doses, based on the reduction of the OD value at 340 nm at the plateau value compared to the controls.

In a further data set the test system is murine macrophages. More on the design: method as in PMID 28481276. The note with it: read-out: cytotoxicity IC50; cited from earlier work.
In data set [2] the target is T1, FIV CA (p24). Nature of the data set: Microscale thermophoresis (MST) binding to CA. The method, then: The major disadvantage of this method is the interference of the compound with the measurement, either by autofluorescence or quenching.
We explored the binding affinity at two different times (10 and 60 min) to enhance the poetical interactions.
MTS experiments were performed according to the NanoTemper technologies protocol in a Monolith NT.115 (green/blue) instrument (NanoTemper Technologies, München, Germany). With this technique, the diffusion behavior of a labeled protein is measured when an infrared light excites the movement of the protein in capillaries. This behavior is the combination of two effects: the fast, local environment dependent responses of the fluorophore to the temperature jump and the slower diffusive thermophoresis fluorescence changes. It will be modified when the protein is complexed with increasing amounts of unlabeled partners, leading to titration curves that can be fit for Kd estimation. In practice, CA was labeled with the Monolith His-Tag Labeling Kit RED-tris-NTA (NanoTemper Technologies, München, Germany), as described by the manufacturer. The experiments were performed using 20% and 40% MST power and between 20–80% LED power at 24 °C. The MST traces were recorded using the standard parameters: 5 s MST power off, 30 s MST power on, and 5 s MST power off. The compounds were used at high concentrations (around 5 mM) in the bindings check assay with DMSO at 5% v/v. If the binding check was positive, then the affinity determination was performed with the same experimental settings, with serial 2× dilutions of the compound of interest.

In data set [3] the test system is J774.1 murine macrophage cells. Nature of the data set: MTT cytotoxicity assay in J774.1 murine macrophages. Type of data set: cell-based. The note with it: compound at 100µM, 48 h. Here is the method:
as §1
Background: Formazan colour is commonly taken as a measure of viable cells.

For data set [4], the system named is five different enzymes from pathogen parasites. More on the design: method as in PMID 20889239, PMID 28481276. As to conditions: at 100 µM; cited from earlier work.
For the next data set, the system named is HIV-1. More on the design: method as in PMID 12662926. The note with it: at 100 µM; cited from earlier work.
Another data set deals with HIV-1 capsid protein. On the set-up: method as in PMID 12662926. The note with it: read-out: EC50 (affinity); cited from earlier work.
Data set [5] has as its system murine acute infection model of the Chagas disease. On the set-up: method as in PMID 26492824. The note with it: 100 mg/kg body for 15 days; cited from earlier work.
Setting [6] is: 1 h (60 min), read-out: 1h EC50.

T1 sequence (P16087 136-357): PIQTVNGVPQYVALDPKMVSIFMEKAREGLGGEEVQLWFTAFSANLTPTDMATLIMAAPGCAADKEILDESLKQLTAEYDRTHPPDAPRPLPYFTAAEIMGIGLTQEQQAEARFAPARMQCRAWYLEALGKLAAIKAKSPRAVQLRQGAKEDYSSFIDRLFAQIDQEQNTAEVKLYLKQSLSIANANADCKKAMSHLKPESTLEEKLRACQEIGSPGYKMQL

What is called IC50 is the concentration that inhibits the measured activity by half. What is called EC50 is the midpoint of the concentration-response curve. Regarding `CC(/C=N/N1CCSCC1)=C\c1ccco1` [compound 878], the “VERO (grown %)” value in the data set on Vero cell lines is recorded as 100±8%. For the same molecule, the “inhibition of the assembly” value on FIV CA (p24) [1] is given as “inhibition of the assembly”. For the same molecule, the IC50 in the data set on murine macrophages is above 100 µM. Also, the EC50 on FIV CA (p24) [2] (10 min, read-out: 10 min EC50) was 119 µM; on FIV CA (p24) [2] (1 h (60 min), Figure 5 panel A, read-out: 1h EC50), 166 µM; on FIV CA (p24) [2] (setting [6]), 166 µM. In data set [3], the “Murine macrophages (grown %)” value amounted to 98±8%. In [4], the inhibitory effects entry is on record as “did not display inhibitory effects”.
In the case of `Cc1ccc(NC(=O)NCCSCc2ccc(CN(C)C)o2)cc1Cl` [CAP-1], the “activity in the in vitro infection assay” value in the data set with HIV-1 was “active”. For the same molecule, the EC50 in the data set on HIV-1 capsid protein is 60 µM.
Regarding `C=CCn1c(C(=O)O)cs\c1=N/N=C/C=C/c1ccc(C)o1` [compound 789], the concentration for a half-maximal effect (EC50) worked out at 640 µM on FIV CA (p24) [2] (10 min, read-out: 10 min EC50) and 655 µM on FIV CA (p24) [2] (setting [6]).
Regarding `C=CCn1c(C(=O)O)cs/c1=N\N=C\c1ccc(/C=N/N=c2\scc(C(=O)O)n2CC=C)cc1` [compound 1310], the “VERO (grown %)” value with Vero cell lines is on record as 95±7%. Also, the “inhibition of the assembly” value at FIV CA (p24) [1] is listed as “inhibition of the assembly”. The EC50 at FIV CA (p24) [2] (10 min, read-out: 10 min EC50) was found to be 655 µM; at FIV CA (p24) [2] (setting [6]), 670 µM. Further, in data set [3], the “Murine macrophages (grown %)” value is 98±7%. For the same molecule, in data set [4], the inhibitory effects result was “did not display inhibitory effects”.
As to `C=CCN1C(=O)CS\C1=N/N=C/C=C/c1cccs1` [compound 1138], the EC50 was determined as 242 µM on FIV CA (p24) [2] (10 min, read-out: 10 min EC50) and 180 µM at FIV CA (p24) [2] (setting [6]).
As to `O=C1/C(=C/C=C/c2ccccc2)CC/C1=C\C=C\c1ccccc1` [compound 1246], the “VERO (grown %)” value in the data set on Vero cell lines was 89±5%. Moreover, the “inhibition of the assembly” value against FIV CA (p24) [1] was “inhibition of the assembly”. Moreover, the toxic effect result in data set [5] is on record as “without toxic effect”. The IC50 in the data set with murine macrophages is above 100 µM. For the same molecule, the EC50 was 390 µM on FIV CA (p24) [2] (10 min, read-out: 10 min EC50) and 239 µM on FIV CA (p24) [2] (setting [6]). In [3], the “Murine macrophages (grown %)” value came to 79±9%. In addition, the inhibitory effects result in [4] is reported as “did not display inhibitory effects”.
Take `C=CCn1c(C)cs\c1=N/N=C/C=C/c1cccs1` [compound 1128]: the EC50 on FIV CA (p24) [2] (10 min, read-out: 10 min EC50) was determined as 322 µM; on FIV CA (p24) [2] (setting [6]) it was 484 µM.
As to `C=CCNC(=S)N/N=C/c1ccc2c(c1)c1cc(/C=N/NC(=S)NCC=C)ccc1n2CC(CC)CCCC` (centres unmarked) [compound 1368], the EC50 on FIV CA (p24) [2] (setting [6]) worked out at 35 µM.
With `O=C1C(=Cc2ccc([N+](=O)[O-])cc2)C(=O)N(CCc2ccccc2)S(=O)(=O)N1CCc1ccccc1` [compound 110], the EC50 at FIV CA (p24) [2] (10 min, read-out: 10 min EC50) was 1100 µM; on FIV CA (p24) [2] (setting [6]) it was 789 µM.
Turning to `O=C(O)c1cs/c(=N/N=C/C=C/C=C/c2cccs2)n1-c1ccccc1` [compound 1136], the “VERO (grown %)” value with Vero cell lines is 100±9%. Moreover, the “inhibition of the assembly” value on FIV CA (p24) [1] is listed as “inhibition of the assembly”. Besides, the EC50 on FIV CA (p24) [2] (10 min, read-out: 10 min EC50) came out at 212 µM; on FIV CA (p24) [2] (setting [6]), 83 µM. In addition, in [3], the “Murine macrophages (grown %)” value was 95±7%. Further, the inhibitory effects result in [4] is recorded as “did not display inhibitory effects”.
As for `Nc1ccc(S(=O)(=O)c2ccc(Nc3c([N+](=O)[O-])c(Nc4ccc(S(=O)(=O)c5ccc(N)cc5)cc4)c4no[n+]([O-])c4c3[N+](=O)[O-])cc2)cc1` [compound 703], the EC50 at FIV CA (p24) [2] (10 min, read-out: 10 min EC50) is 320 µM; on FIV CA (p24) [2] (setting [6]), 720 µM.
